From publication PMC3835719 (MedChemComm, 2013)

Experiments:
[1] = test system: human mammary epithelial cell line (HMEpC); test: Cell growth inhibition, normal mammary epithelial cells; format: cell-based; settings: IC50 at 24h, HMEpC vs MCF-7
[2] = test system: HT-29 human colon cancer cells; test: MTT cell growth inhibition, HT-29 colon cancer cells; format: cell-based; settings: for Potency enhancement, Colon HT-29: ratio of IC50 values parent NSAID/NOSH-NSAID, 24 hr
[3] = test system: HT-29 human colon cancer cells; test: Cell cycle phases by PI staining and flow cytometry; format: cell-based; settings: at IC50
[4] = test system: human cancer cell lines of colon, breast, pancreas, and leukemia; test: MTT cell growth inhibition, panel of four cancer cell lines; format: cell-based; settings: ratio of IC50 values parent/NOSH compound, 24 h
[5] = test system: BxPC-3 human pancreatic cancer cells; test: MTT cell growth inhibition, BxPC-3 pancreatic cancer cells; format: cell-based; settings: ratio of IC50 values parent NSAID/NOSH-NSAID, 24 hr
[6] = test system: HT-29 human colon cancer cells; test: Proliferation by PCNA antigen expression; format: cell-based; settings: at IC50 for cell growth inhibition, 24 hrs
[7] = test system: Jurkat T human leukemia cells; test: MTT cell growth inhibition, Jurkat T leukemia cells; format: cell-based; settings: ratio of IC50 values parent NSAID/NOSH-NSAID, 24 hr
[8] = test system: MCF-7 (estrogen receptor positive) breast cancer cells; test: MTT cell growth inhibition, MCF-7 breast cancer cells; format: cell-based, human; settings: ratio of IC50 values parent NSAID/NOSH-NSAID, 24 hr
[9] = test system: human primary pancreatic epithelial cells (HPDE, ACBRI 515); test: Cell growth inhibition, normal pancreatic epithelial cells; format: cell-based; settings: 24 h, read-out: IC50 for cell growth inhibition, Pancreatic Epithelial HPDE (ACBRI 515)

SMILES	Fold more potent in breast cancer cell line (MCF-7) than in normal HMEpC cells [1]	Fold more potent than the combination (sum of its parts) ([2]; HT-29, intact molecule vs naproxen plus SNAP and ADT-OH)	Potency enhancement, Colon HT-29 [2]	Mode of cell cycle arrest [3]	Enhanced potency over parent compound, range over the cancer cell lines [4]	Potency enhancement, Pancreas BxPC-3 [5]	Reduction of proliferation (PCNA expression) [6]	Potency enhancement, Leukemia Jurkats [7]	Potency enhancement, Breast MCF-7 [8]	IC50 [9] [µM]
C[C@H](C(=O)Oc1ccc(-c2cc(=S)ss2)cc1)c1ccc2cc(OC(=O)CCCO[N+](=O)[O-])ccc2c1 [NOSH-NAP, (S)-6-(1-oxo-1-(4-(3-thioxo-3H-1,2-dithiol-5-yl)phenoxy)propan-2-yl) naphthalen-2-yl 4-(nitrooxy) butanoate]	approximately 115 fold	approximately 8000 fold	~34,000	G0/G1 cell cycle block	16,000-34,000 fold	~16,000	approximately 50%	~25,000	~20,000	
CC1=C(CC(=O)Oc2ccc(OC(=O)CCCO[N+](=O)[O-])c(C(=O)Oc3ccc(-c4cc(=S)ss4)cc3)c2)c2cc(F)ccc2/C1=C\c1ccc([S+](C)[O-])cc1 (stereo not drawn) [NOSH-SUL, (Z)-4-(3-thioxo-3H-1,2-dithiol-5-yl) phenyl 5-(2-(5-fluoro-2-methyl-1-(4-(methylsulfinyl)benzylidene)-1H-inden-3-yl)acetoxy)-2-((4-(nitrooxy)butanoyl)oxy) benzoate]	about 150 fold		~9,000	G2/M block	2,500-9,650 fold	~8,200	approximately 50%	~2,500	~9,650	> 25
